Values joined by “and” are separate entries in the source; they are usually repeats but may differ in a detail not shown here. Identical values can stand only once. Like-named read-outs stand apart in the source and are kept apart here.

For data set [1] the following is noted: cited from earlier work.
Another data set has as its system PKC. In words: PKC kinase activity assay kit (Assay Designs). It is filed as biochemical. The settings on record: for percentage PKC inhibition: PKC 10 ng/well. On the procedure: A PKC kinase activity assay kit (Assay Designs, Ann Arbor, Mich.) was used to test endoxifen PKC inhibitory activity 0.025, 0.05, 0.1, or 0.2 mM endoxifen was used in a reaction mix containing PKC 10 ng/well.

In another data set the test system is male Balb/c mice. In words: Toxicity testing, intravenous single and repeat dose in mice. It counts as in vivo. On the procedure:
Endoxifen was formulated according to Example 6 and was tested for toxicity in male Balb/c mice. A single test dose at 100 mg/kg or 50 mg/kg was intravenously administered to mice. […] The mice also survived in the control group with a vehicle control that lacked endoxifen. Repeat dose toxicity study was conducted with a dose of 25 mg/kg administered consecutively for 3 days with accumulated dose of 75 mg/kg. […] The results are reported in the table below as the number of mice surviving per total.

Data set [2] can be described thus: Comparative pharmacokinetic study in rats. It is filed as in vivo. The settings on record: oral 10 mg/kg endoxifen versus 10 mg/kg tamoxifen.
The next data set deals with patients. Conditions: patients on raloxifene for osteoporosis; cited from earlier work.
The test system of another data set is Parkinsonian monkeys. The settings on record: co-administered with levodopa to Parkinsonian monkeys; cited from earlier work.

In the case of “4-hydroxy tamoxifen [4-OH-tamoxifen, reference compound]”, the “concentration in the human plasma” value in data set [1] (human, in vivo) is listed as 1 ng/mL.
On to `CC/C(=C(\c1ccc(O)cc1)c1ccc(OCCNC)cc1)c1ccccc1` [Endoxifen, 4-hydroxy N-desmethyl tamoxifen], for which the figures for the “percentage PKC inhibition” value in the data set with PKC (0.2 mM) and with PKC ([…]) were 80% and 12%, respectively. For the same molecule, the “potency as PKC inhibitor relative to tamoxifen” value in the data set on PKC (endoxifen versus tamoxifen) is “at least four fold more potent”. The Survival/Total in the data set with male Balb/c mice (repeat dose 25 mg/kg consecutively for 3 days, accumulated dose 75 mg/kg) was 4/4; in the data set with male Balb/c mice (single dose 50 mg/kg intravenous, formulated according to Example 6, 50 mg/kg) it was “all animals survived and 4/4”; in the data set on male Balb/c mice (single dose 100 mg/kg intravenous, formulated according to Example 6, 100 mg/kg), “All the mice died and 0/2”. In the data set with male Balb/c mice (single dose 50 mg/kg intravenous), the “loss of body weight” value is on record as “no significant loss of body weight”. In addition, the “concentration in the human plasma” value in data set [1] (patients treated with tamoxifen) is 12.4 ng/mL. Also, in data set [2], the “endoxifen plasma concentration compared to that after same dose of tamoxifen” value was determined as 10 fold.
For the molecule `O=C(c1ccc(OCCN2CCCCC2)cc1)c1c(-c2ccc(O)cc2)sc2cc(O)ccc12` [raloxifene], in the data set on patients, the “reduction in risk of mild cognitive impairment” value is 33%.
In the case of `CC/C(=C(\c1ccccc1)c1ccc(OCCN(C)C)cc1)c1ccccc1` [tamoxifen, reference compound], the “attenuation of levodopa-induced dyskinesias” value in the data set on Parkinsonian monkeys is 61%.

The record behind these values is patent US11672758B2, “Endoxifen methods and compositions for inhibition of protein kinase C” (Jina Pharmaceuticals, Inc., priority 2006, dated 2023).
